Data: ChEMBL document CHEMBL1151538, “Rearrangement of unsymmetrical azetidinone disulfides to 2-(heterocyclylthiomethyl)penams, a synthetic approach to new -lactamase inhibitors” (Bioorg Med Chem Lett, 1993)

Tests used:
Beta-lactamase TEM = Beta-lactamase TEM (Escherichia coli, UniProt P62593); experiment: Inhibitory activity against Escherichia coli HA58R Class-III TEM-1 type beta-lactamase enzyme
Beta-lactamase SHV-1 = target: T1, Beta-lactamase SHV-1 (Escherichia coli, UniProt P0AD63); experiment: Inhibitory activity against Escherichia coli HA208 Class-III SHV-1 type beta-lactamase enzyme
T1 sequence (P0AD63 whole entry): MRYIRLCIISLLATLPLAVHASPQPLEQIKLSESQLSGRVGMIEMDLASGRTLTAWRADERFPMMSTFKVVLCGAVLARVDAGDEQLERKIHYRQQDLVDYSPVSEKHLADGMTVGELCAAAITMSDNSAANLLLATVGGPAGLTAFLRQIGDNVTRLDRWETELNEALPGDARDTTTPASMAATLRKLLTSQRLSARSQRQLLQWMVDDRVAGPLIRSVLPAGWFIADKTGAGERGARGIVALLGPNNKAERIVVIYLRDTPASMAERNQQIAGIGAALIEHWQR

Beta-lactamase BRO-1 = target: T2, Beta-lactamase BRO-1 (Moraxella catarrhalis, UniProt Q59514); experiment: Inhibitory activity against Branhamella catarrhalis 89001 Class-III BRO-1 type beta-lactamase enzyme; set-up: species or system b.catarr
T2 sequence (Q59514 whole entry): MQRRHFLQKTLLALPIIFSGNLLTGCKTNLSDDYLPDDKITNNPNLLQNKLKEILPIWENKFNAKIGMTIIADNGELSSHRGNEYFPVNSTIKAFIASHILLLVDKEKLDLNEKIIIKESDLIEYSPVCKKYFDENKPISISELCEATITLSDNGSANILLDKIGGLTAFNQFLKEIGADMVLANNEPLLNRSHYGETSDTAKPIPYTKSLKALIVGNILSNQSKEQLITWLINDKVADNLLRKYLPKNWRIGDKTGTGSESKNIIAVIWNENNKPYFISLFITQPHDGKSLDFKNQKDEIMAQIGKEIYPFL

Beta-lactamase OXA-1 = Beta-lactamase OXA-1 (Escherichia coli, UniProt P13661); experiment: Inhibitory activity against Escherichia coli HA209 Class-V OXA-1 type beta-lactamase enzyme
Beta-lactamase [1] = target: Beta-lactamase (Enterobacter cloacae, UniProt P05364); experiment: Inhibitory activity against Enterobacter cloacae HC8 Class-I beta-lactamase enzyme type P99
Beta-lactamase [2] = target: Beta-lactamase (Staphylococcus aureus, UniProt P00807); experiment: Inhibitory activity against Staphylococcus aureus CJ8 beta-lactamase enzyme
Beta-lactamase [3] = target: Beta-lactamase (Citrobacter freundii, UniProt P05193); experiment: Inhibitory activity against Citrobacter freundii 87470 Class-I beta-lactamase enzyme
Beta-lactamase [4] = target: T3, Beta-lactamase (Klebsiella oxytoca, UniProt Q8RT60); experiment: Inhibitory activity against Klebsiella oxytoca HC7 Class-IV K1 type beta-lactamase enzyme
T3 sequence (Q8RT60 whole entry): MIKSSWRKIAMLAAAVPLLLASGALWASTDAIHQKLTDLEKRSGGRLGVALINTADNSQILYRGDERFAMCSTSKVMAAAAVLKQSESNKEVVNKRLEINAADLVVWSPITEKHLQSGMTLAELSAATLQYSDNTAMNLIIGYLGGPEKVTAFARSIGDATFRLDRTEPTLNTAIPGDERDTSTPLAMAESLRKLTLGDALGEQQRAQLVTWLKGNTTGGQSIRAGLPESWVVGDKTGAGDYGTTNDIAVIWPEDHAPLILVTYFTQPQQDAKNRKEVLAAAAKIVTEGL

Chain of Beta-lactamase TEM (P62593 whole entry): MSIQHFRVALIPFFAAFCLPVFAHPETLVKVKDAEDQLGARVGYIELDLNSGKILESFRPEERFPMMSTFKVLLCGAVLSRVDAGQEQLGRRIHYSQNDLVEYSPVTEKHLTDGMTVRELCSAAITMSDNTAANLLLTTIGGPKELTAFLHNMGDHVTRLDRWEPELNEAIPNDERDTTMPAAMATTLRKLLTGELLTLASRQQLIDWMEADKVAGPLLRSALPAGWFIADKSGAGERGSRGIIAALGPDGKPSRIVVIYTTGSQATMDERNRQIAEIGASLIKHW
Chain of Beta-lactamase OXA-1 (P13661 whole entry): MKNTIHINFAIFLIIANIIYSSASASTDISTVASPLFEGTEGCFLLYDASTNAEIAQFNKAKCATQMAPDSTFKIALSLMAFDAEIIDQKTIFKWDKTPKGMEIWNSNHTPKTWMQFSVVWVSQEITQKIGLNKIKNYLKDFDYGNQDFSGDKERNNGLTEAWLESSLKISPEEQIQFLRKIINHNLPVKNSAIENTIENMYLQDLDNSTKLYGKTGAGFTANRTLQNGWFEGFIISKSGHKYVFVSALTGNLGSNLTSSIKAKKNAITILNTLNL
Chain of Beta-lactamase (Enterobacter cloacae, UniProt P05364) (P05364 whole entry): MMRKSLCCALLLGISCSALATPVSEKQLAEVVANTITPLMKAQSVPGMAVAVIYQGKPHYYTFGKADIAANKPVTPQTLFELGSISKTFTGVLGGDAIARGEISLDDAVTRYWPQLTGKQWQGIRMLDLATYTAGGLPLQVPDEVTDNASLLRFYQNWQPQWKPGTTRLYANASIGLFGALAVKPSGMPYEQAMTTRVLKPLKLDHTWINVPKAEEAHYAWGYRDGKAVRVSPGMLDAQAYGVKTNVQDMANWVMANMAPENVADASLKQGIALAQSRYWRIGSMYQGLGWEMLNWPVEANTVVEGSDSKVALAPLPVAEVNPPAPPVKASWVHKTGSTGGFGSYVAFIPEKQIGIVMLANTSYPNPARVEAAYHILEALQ
Chain of Beta-lactamase (Citrobacter freundii, UniProt P05193) (P05193 whole entry): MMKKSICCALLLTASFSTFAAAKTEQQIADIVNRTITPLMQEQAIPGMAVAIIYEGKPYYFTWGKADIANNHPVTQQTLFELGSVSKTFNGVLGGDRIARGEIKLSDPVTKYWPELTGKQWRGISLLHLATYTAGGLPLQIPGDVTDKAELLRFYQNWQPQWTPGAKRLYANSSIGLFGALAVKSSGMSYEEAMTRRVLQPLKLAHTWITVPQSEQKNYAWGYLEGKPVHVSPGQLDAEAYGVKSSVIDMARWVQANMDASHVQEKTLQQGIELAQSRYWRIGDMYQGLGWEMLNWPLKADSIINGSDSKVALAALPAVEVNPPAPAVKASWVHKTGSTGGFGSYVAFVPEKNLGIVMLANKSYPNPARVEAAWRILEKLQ
Chain of Beta-lactamase (Staphylococcus aureus, UniProt P00807) (P00807 whole entry): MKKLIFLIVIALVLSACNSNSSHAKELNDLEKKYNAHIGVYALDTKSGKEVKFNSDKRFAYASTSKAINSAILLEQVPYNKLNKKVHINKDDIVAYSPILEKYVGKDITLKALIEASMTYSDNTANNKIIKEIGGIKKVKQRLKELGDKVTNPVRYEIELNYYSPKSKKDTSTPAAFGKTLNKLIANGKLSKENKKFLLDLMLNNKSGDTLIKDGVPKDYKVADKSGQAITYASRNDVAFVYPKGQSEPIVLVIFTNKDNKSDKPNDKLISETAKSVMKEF

Compound	IC50 (Beta-lactamase TEM) [nM]	IC50 (Beta-lactamase SHV-1) [nM]	IC50 (Beta-lactamase BRO-1) [nM]	IC50 (Beta-lactamase OXA-1) [nM]	IC50 (Beta-lactamase [1]) [nM]	IC50 (Beta-lactamase [2]) [nM]	IC50 (Beta-lactamase [3]) [nM]	IC50 (Beta-lactamase [4]) [nM]
Cn1cnnc1SC[C@@]1(C)[C@H](C(=O)O)N2C(=O)C[C@H]2S1(=O)=O	72.2	577	2.89					
C[C@]1(Cn2ccnn2)[C@H](C(=O)O)N2C(=O)C[C@H]2S1(=O)=O [TAZOBACTAM]		133	33.3					
C[C@]1(CSc2nc3ccccc3[nH]2)[C@H](C(=O)O)N2C(=O)C[C@H]2S1(=O)=O	65.5	655						
Cn1ccnc1SC[C@]1(C)S[C@@H]2[C@H](Br)C(=O)N2[C@H]1C(=O)O	15.3	51	63.7	10200				
O=C(O)[C@H]1/C(=C/CO)O[C@@H]2CC(=O)N21 [CLAVULANIC ACID]			30.1					
C[C@]1(CSC2=NCCS2)[C@H](C(=O)O)N2C(=O)C[C@H]2S1(=O)=O	22.8	371	2.85	114				
CC1(C)[C@H](C(=O)O)N2C(=O)C[C@H]2S1(=O)=O [SULBACTAM]		1710		1370				
Cn1ccnc1SC[C@@]1(C)[C@H](C(=O)O)N2C(=O)C[C@H]2S1(=O)=O		926	2.9	463				
C[C@]1(CSc2nc3ccccc3o2)[C@H](C(=O)O)N2C(=O)C[C@H]2S1(=O)=O	10.5			83.7				
C[C@@]1(CSc2nc3ccccc3s2)S[C@@H]2[C@H](Br)C(=O)N2[C@H]1C(=O)O	35.9	141	56.1	1410				
C[C@@]1(CSc2nc3ccccc3o2)S[C@@H]2[C@H](Br)C(=O)N2[C@H]1C(=O)O	30.3	147			18400	116	14700	1160
Cn1nnnc1SC[C@@]1(C)[C@H](C(=O)O)N2C(=O)C[C@H]2S1(=O)=O	17.3	72	8.64	92.1				
Cn1nnnc1SC[C@]1(C)S[C@@H]2[C@H](Br)C(=O)N2[C@H]1C(=O)O	101	1010	50.7	8120				
